The target in this test is RET G810R (Homo sapiens (Human), UniProt P07949, G810R). Nature of the test: HTRF KinEASE-TK kinase activity test, RET G810R. The settings on record: for inhibitory activity against RET G810R relative to that of selpercatinib (LOXO-292): fold versus selpercatinib (LOXO-292). In general terms: TR-FRET usually uses a lanthanide donor and a delayed reading to cut background.

Where [1] appears, read: read-out: RET G810R IC50, HTRF kinase assay.

The term IC50 denotes the concentration needed to halve the response being measured.

Read-outs that look alike come from different tables or passages of the source.

Sequence of RET G810R (P07949 29-1114 G810R): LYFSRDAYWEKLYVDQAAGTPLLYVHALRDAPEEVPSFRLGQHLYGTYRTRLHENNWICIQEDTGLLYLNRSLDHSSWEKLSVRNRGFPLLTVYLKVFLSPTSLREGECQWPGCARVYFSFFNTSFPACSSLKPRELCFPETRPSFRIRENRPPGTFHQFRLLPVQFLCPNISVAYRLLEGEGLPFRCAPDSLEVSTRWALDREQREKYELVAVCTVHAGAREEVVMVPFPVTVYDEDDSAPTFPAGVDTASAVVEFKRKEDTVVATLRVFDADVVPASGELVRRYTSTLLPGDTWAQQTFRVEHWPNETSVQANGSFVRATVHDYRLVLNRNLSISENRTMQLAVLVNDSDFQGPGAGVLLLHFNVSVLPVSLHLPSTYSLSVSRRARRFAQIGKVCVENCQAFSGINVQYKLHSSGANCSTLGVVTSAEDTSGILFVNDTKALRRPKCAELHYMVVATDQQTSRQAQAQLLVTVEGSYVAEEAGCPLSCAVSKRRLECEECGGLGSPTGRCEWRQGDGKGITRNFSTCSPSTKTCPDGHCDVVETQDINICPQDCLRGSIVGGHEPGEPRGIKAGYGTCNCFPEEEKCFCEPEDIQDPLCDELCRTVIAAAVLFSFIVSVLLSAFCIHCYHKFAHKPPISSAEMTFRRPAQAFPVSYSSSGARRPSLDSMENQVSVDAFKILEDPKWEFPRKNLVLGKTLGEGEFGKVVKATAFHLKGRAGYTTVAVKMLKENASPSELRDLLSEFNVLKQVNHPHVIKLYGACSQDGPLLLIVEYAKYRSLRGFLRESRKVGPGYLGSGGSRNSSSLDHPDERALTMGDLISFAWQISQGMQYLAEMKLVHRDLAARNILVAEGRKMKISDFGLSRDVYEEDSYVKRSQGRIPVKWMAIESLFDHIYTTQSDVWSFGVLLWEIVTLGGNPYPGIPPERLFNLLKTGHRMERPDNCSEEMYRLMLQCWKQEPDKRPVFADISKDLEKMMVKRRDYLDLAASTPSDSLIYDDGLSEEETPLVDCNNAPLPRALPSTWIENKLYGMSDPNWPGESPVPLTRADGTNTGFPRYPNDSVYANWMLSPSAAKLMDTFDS

For `CCOc1cc(-c2cnc(N3CC[C@H](NC(=O)c4cc(F)ccc4Cl)[C@@H](O)C3)cn2)c2c3cn[nH]c3nn2c1` [Compound 91], the “inhibitory activity against RET G810R relative to that of selpercatinib (LOXO-292)” value is ≥ 10 times. For the same molecule, under setting [1], the IC50 is 2.2 nM.

As for `CCOc1cc(-c2ccc(N3CCC(S(=O)(=O)NC(C)C)CC3)nc2)c2c3cn[nH]c3nn2c1` [Compound 101, 1-(5-(6-ethoxy-1H-pyrazolo[3′,4′:3,4]pyrazolo[1,5-α]pyridin-4-yl)pyridin-2-yl)-N-isopropylpiperidine-4-sulfonamide], the IC50 under setting [1] amounted to 6.6 nM.

As to `CCOc1cc(-c2ccc(N3CCC(O)(CNS(=O)(=O)c4ccccc4)CC3)nc2)c2c3cn[nH]c3nn2c1` [Compound 102, N-((1-(5-(6-ethoxy-1H-pyrazolo[3′,4′:3,4]pyrazolo[1,5-α]pyridin-4-yl)pyridin-2-yl)-4-hydroxypiperidin-4-yl)methylene)benzenesulfonamide], the “inhibitory activity against RET G810R relative to that of selpercatinib (LOXO-292)” value is recorded as ≥ 10 times. In addition, under setting [1], the IC50 came to 3.6 nM.

For `CCOc1cc(-c2ccc(N3CCC(Oc4ccccn4)CC3)nc2)c2c3cn[nH]c3nn2c1` [Compound 103, 6-ethoxy-4-(6-(4-(pyridin-2-yloxy)piperidin-1-yl)pyridin-3-yl)-1H-pyrazolo[3′,4′:3,4]pyrazolo[1,5-α]pyridine], under setting [1], the IC50 worked out at 11.1 nM.

For `CCOc1cc(-c2ccc(N3CCC(Oc4ccc(C)nn4)CC3)nc2)c2c3cn[nH]c3nn2c1` [Compound 104, 6-ethoxy-4-(6-(4-((6-methylpyridazin-3-yl)oxy)piperidin-1-yl)pyridin-3-yl)-1H-pyrazolo[3′,4′:3,4]pyrazolo[1,5-α]pyridine], the IC50 under setting [1] was 6.4 nM.

Take `CCOc1cc(-c2ccc(N3CC[C@H](NCc4c(F)cccc4Cl)[C@@H](O)C3)nc2)c2c3cn[nH]c3nn2c1` [Compound 107, (3S,4S)-4-((2-chloro-6-fluorobenzyl)amino)-1-(5-(6-ethoxy-1H-pyrazolo[3′,4′:3,4]pyrazolo[1,5-α ]pyridin-4-yl)pyridin-2-yl)piperidin-3-ol]: it took 14.5 nM to reach half-maximal inhibition (IC50).

In the case of `CCOc1cc(-c2ccc(N3CC4COCC(C3)N4Cc3ccc(OC)nc3)nc2)c2c3cn[nH]c3nn2c1` [Compound 114, 7-(5-(6-ethoxy-1H-pyrazolo[3′,4′:3,4]pyrazolo[1,5-α]pyridin-4-yl)pyridin-2-yl)-9-((6-methoxypyridin-3-yl)methylene)-3-oxa-7,9-diazabicyclo[3.3.1]nonane], the “inhibitory activity against RET G810R relative to that of selpercatinib (LOXO-292)” value is given as ≥ 10 times. Also, the IC50 under setting [1] stood at 3.6 nM.

As to `CCOc1cc(-c2ccc(N3C[C@H]4CN(C(=O)c5c(F)cccc5Cl)C[C@H]4C3)nc2)c2c3cn[nH]c3nn2c1` [Compound 118, N-((3aR,6aS)-5-(5-(6-ethoxy-1H-pyrazolo[3′,4′:3,4]pyrazolo[1,5-α]pyridin-4-yl)pyridin-2-yl)hexahydropyrrolo[3,4-c]pyrrol-2(1H)-yl)-2-chloro-6-fluorobenzamide], under setting [1], the IC50 was determined as 7.7 nM.

With `CCOc1cc(-c2ccc(N3CCC(CO)(NC(=O)c4cc(F)ccc4F)CC3)nc2)c2c3cn[nH]c3nn2c1` [Compound 150, N-(1-(5-(6-ethoxy-1H-pyrazolo[3′,4′:3,4]pyrazolo[1,5-α]pyridin-4-yl)pyridin-2-yl)-4-(hydroxymethyl)piperidin-4-yl)-2,5-difluorobenzamide], under setting [1], the IC50 is 4.4 nM.

Take `CCOc1cc(-c2ccc(N3C[C@H]4CN(Cc5ccc(OC)nc5)C[C@H]4C3)nc2)c2c3cn[nH]c3nn2c1` [Compound 152, 6-ethoxy-4-(6-((3aR,6aS)-5-((6-methoxypyridin-3-yl)methylene)-hexahydropyrrolo[3,4-c]pyrrol-2(1H)-yl)pyridin-3-yl)-1H-pyrazolo[3′,4′:3,4]pyrazolo[1,5-α]pyridine]: the IC50 under setting [1] was 4.1 nM.

The values are drawn from patent US20240174674A1, “NITROGEN-CONTAINING POLYCYCLIC FUSED RING COMPOUND, PHARMACEUTICAL COMPOSITION THEREOF, PREPARATION METHOD THEREFOR, AND USE THEREOF” (APPLIED PHARMACEUTICAL SCIENCE, INC., priority 2021, published 2024).
